Measured values: PubChem BioAssay (NCI)
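GI50: concentration for 50% inhibition of growth. Definition used: TGI = concentration required for complete inhibition of growth.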

Legend:
Assay in all cases: inhibition of tumour cell growth, NCI panel, 384-well format
[1] = test system: 786-0 renal
[2] = test system: A498 renal
[3] = test system: A549 NSCLC
[4] = test system: BT-549 breast
[5] = test system: CAKI-1 renal
[6] = test system: CCRF-CEM leukemia
[7] = test system: COLO 205 colon
[8] = test system: DU-145 prostate
[9] = test system: EKVX NSCLC
[10] = test system: HCC-2998 colon
[11] = test system: HCT-116 colon
[12] = test system: HCT-15 colon
[13] = test system: HL-60(TB) leukemia
[14] = test system: HOP-62 NSCLC
[15] = test system: HOP-92 NSCLC
[16] = test system: HS 578T breast
[17] = test system: HT29 colon
[18] = test system: IGROV1 ovarian
[19] = test system: KM12 colon
[20] = test system: LOX IMVI melanoma
[21] = test system: M14 melanoma
[22] = test system: MALME-3M melanoma
[23] = test system: MCF7 breast
[24] = test system: MDA-MB-231 breast
[25] = test system: MDA-MB-435 melanoma
[26] = test system: MOLT-4 leukemia
[27] = test system: NCI-H226 lung
[28] = test system: NCI-H23 lung
[29] = test system: NCI-H322M lung
[30] = test system: NCI-H460 NSCLC
[31] = test system: NCI/ADR-RES ovarian
[32] = test system: OVCAR-3 ovarian
[33] = test system: OVCAR-4 ovarian
[34] = test system: OVCAR-8 ovarian
[35] = test system: RPMI-8226 leukemia
[36] = test system: RXF 393 renal
[37] = test system: SF-268 CNS
[38] = test system: SF-539 CNS
[39] = test system: SK-MEL-2 melanoma
[40] = test system: SK-MEL-28 melanoma
[41] = test system: SK-MEL-5 melanoma
[42] = test system: SK-OV-3 ovarian
[43] = test system: SN12C renal
[44] = test system: SNB-19 CNS
[45] = test system: SNB-75 CNS
[46] = test system: SR leukemia
[47] = test system: SW-620 colon
[48] = test system: TK-10 renal
[49] = test system: U251 glioblastoma
[50] = test system: UACC-257 melanoma
[51] = test system: UACC-62 melanoma
[52] = test system: UO-31 renal

C[C@@]1(O)CCC[C@H]1n1c(=O)c(C(F)F)cc2cnc(NC3CCN(S(C)(=O)=O)CC3)nc21
GI50 [1]: 1850 nM
TGI [1]: > 100000 nM
GI50 [2]: 1750 nM
TGI [2]: > 100000 nM
GI50 [3]: 1980 nM
TGI [3]: > 100000 nM
GI50 [4]: 866 nM
TGI [4]: 3040 nM
GI50 [5]: 784 nM
TGI [5]: > 100000 nM
GI50 [6]: 357 nM
TGI [6]: 1770 nM
GI50 [7]: 1330 nM
TGI [7]: 4740 nM
GI50 [8]: 1630 nM
TGI [8]: 6380 nM
GI50 [9]: 1900 nM
TGI [9]: 5150 nM
GI50 [10]: 1380 nM
TGI [10]: 3900 nM
GI50 [11]: 198 nM
TGI [11]: > 100000 nM
GI50 [12]: 1790 nM
TGI [12]: 15800 nM
GI50 [13]: 72.1 nM
TGI [13]: 1200 nM
GI50 [14]: 1800 nM
TGI [14]: 6590 nM
GI50 [15]: 2050 nM
TGI [15]: > 100000 nM
GI50 [16]: 1920 nM
TGI [16]: 4040 nM
GI50 [17]: 1830 nM
TGI [17]: > 100000 nM
GI50 [18]: 1620 nM
TGI [18]: > 100000 nM
GI50 [19]: 1070 nM
TGI [19]: 3920 nM
GI50 [20]: 1600 nM
TGI [20]: > 100000 nM
GI50 [21]: 1470 nM
TGI [21]: 5490 nM
GI50 [22]: 1440 nM
TGI [22]: 3160 nM
GI50 [23]: 128 nM
TGI [23]: 19100 nM
GI50 [24]: 2340 nM
TGI [24]: > 100000 nM
GI50 [25]: 1630 nM
TGI [25]: 9280 nM
GI50 [26]: 445 nM
TGI [26]: 1930 nM
GI50 [27]: 1100 nM
TGI [27]: > 100000 nM
GI50 [28]: 1680 nM
TGI [28]: 3300 nM
GI50 [29]: 2070 nM
TGI [29]: 5800 nM
GI50 [30]: 58.9 nM
TGI [30]: 2180 nM
GI50 [31]: 21000 nM
TGI [31]: > 100000 nM
GI50 [32]: 1520 nM
TGI [32]: 5570 nM
GI50 [33]: 3040 nM
TGI [33]: 7150 nM
GI50 [34]: 1540 nM
TGI [34]: > 100000 nM
GI50 [35]: 29 nM
TGI [35]: 95.1 nM
GI50 [36]: 1440 nM
TGI [36]: 2880 nM
GI50 [37]: 1690 nM
TGI [37]: 4040 nM
GI50 [38]: 1300 nM
TGI [38]: 2890 nM
GI50 [39]: 2250 nM
TGI [39]: 4210 nM
GI50 [40]: 1210 nM
TGI [40]: 2910 nM
GI50 [41]: 99.3 nM
TGI [41]: 2280 nM
GI50 [42]: 3010 nM
TGI [42]: > 100000 nM
GI50 [43]: 1990 nM
TGI [43]: 4920 nM
GI50 [44]: 2400 nM
TGI [44]: > 100000 nM
GI50 [45]: 1420 nM
TGI [45]: 3020 nM
GI50 [46]: 34.4 nM
TGI [46]: 1080 nM
GI50 [47]: 94.4 nM
TGI [47]: > 100000 nM
GI50 [48]: 1150 nM
TGI [48]: > 100000 nM
GI50 [49]: 2030 nM
TGI [49]: 8800 nM
GI50 [50]: 1630 nM
TGI [50]: 3970 nM
GI50 [51]: 951 nM
TGI [51]: 2940 nM
GI50 [52]: 1010 nM
TGI [52]: 4130 nM
